From the NIST ThermoML archive (doi:10.1016/j.jct.2007.07.005)
Numbers after ± are expanded uncertainties.

Experiment: xn = mol fraction of the nth substance listed
Details: Fluid (supercritical or subcritical phases), vibrating tube

CCCCCO [pentan-1-ol] + O=C=O
Details | mass density [kg/m3]
323.11 K, 21027 kPa, x2 = 0.1347 | 813.66 ± 0.45
323.11 K, 21051 kPa, x2 = 0.6054 | 847.84 ± 0.45
323.11 K, 22019 kPa, x2 = 0.6054 | 849.47 ± 0.46
323.11 K, 22027 kPa, x2 = 0.1347 | 814.42 ± 0.45
323.11 K, 23017 kPa, x2 = 0.1347 | 815.16 ± 0.45
323.11 K, 23023 kPa, x2 = 0.6054 | 851.13 ± 0.46
323.11 K, 24022 kPa, x2 = 0.1347 | 815.93 ± 0.45
323.11 K, 24036 kPa, x2 = 0.6054 | 852.76 ± 0.46
323.11 K, 24999 kPa, x2 = 0.1347 | 816.68 ± 0.45
323.11 K, 25069 kPa, x2 = 0.6054 | 854.41 ± 0.46
332.79 K, 493 kPa, x2 = 0 | 784.29 ± 0.43
332.79 K, 1014 kPa, x2 = 0 | 784.76 ± 0.43
332.79 K, 2006 kPa, x2 = 0 | 785.61 ± 0.43
332.79 K, 3025 kPa, x2 = 0 | 786.48 ± 0.43
332.79 K, 4011 kPa, x2 = 0 | 787.28 ± 0.44
332.79 K, 5020 kPa, x2 = 0 | 788.11 ± 0.44
332.79 K, 6003 kPa, x2 = 0 | 788.91 ± 0.44
332.79 K, 6997 kPa, x2 = 0 | 789.73 ± 0.44
332.79 K, 8009 kPa, x2 = 0 | 790.54 ± 0.44
332.79 K, 8995 kPa, x2 = 0 | 791.31 ± 0.44
332.79 K, 9996 kPa, x2 = 0 | 792.12 ± 0.44
332.79 K, 11018 kPa, x2 = 0 | 792.9 ± 0.44
332.79 K, 11995 kPa, x2 = 0 | 793.66 ± 0.44
332.79 K, 13023 kPa, x2 = 0 | 794.45 ± 0.44
332.79 K, 13999 kPa, x2 = 0 | 795.19 ± 0.44
332.79 K, 15010 kPa, x2 = 0 | 795.95 ± 0.44
332.79 K, 16028 kPa, x2 = 0 | 796.68 ± 0.44
332.79 K, 17003 kPa, x2 = 0 | 797.41 ± 0.45
332.79 K, 18040 kPa, x2 = 0 | 798.14 ± 0.45
332.79 K, 19004 kPa, x2 = 0 | 798.84 ± 0.45
332.79 K, 20035 kPa, x2 = 0 | 799.59 ± 0.45
332.79 K, 21024 kPa, x2 = 0 | 800.29 ± 0.45
332.79 K, 21993 kPa, x2 = 0 | 800.97 ± 0.45
332.79 K, 23039 kPa, x2 = 0 | 801.71 ± 0.45
332.79 K, 24015 kPa, x2 = 0 | 802.4 ± 0.45
332.79 K, 25022 kPa, x2 = 0 | 803.12 ± 0.45
332.93 K, 8022 kPa, x2 = 0.3624 | 806.47 ± 0.44
332.93 K, 9003 kPa, x2 = 0.3624 | 807.66 ± 0.44
332.93 K, 9033 kPa, x2 = 0.4651 | 808.88 ± 0.44
332.93 K, 10018 kPa, x2 = 0.3624 | 808.86 ± 0.44
332.93 K, 10027 kPa, x2 = 0.4651 | 810.57 ± 0.44
332.93 K, 10989 kPa, x2 = 0.3624 | 809.94 ± 0.44
332.93 K, 11000 kPa, x2 = 0.4651 | 812.22 ± 0.44
332.93 K, 12008 kPa, x2 = 0.3624 | 811.14 ± 0.44
332.93 K, 12019 kPa, x2 = 0.4651 | 813.92 ± 0.44
332.93 K, 12032 kPa, x2 = 0.8067 | 770.68 ± 0.53
332.93 K, 12989 kPa, x2 = 0.9757 | 593.78 ± 1.1
332.93 K, 12995 kPa, x2 = 0.8067 | 780.67 ± 0.51
332.93 K, 13015 kPa, x2 = 0.3624 | 812.22 ± 0.44
332.93 K, 13017 kPa, x2 = 0.4651 | 815.52 ± 0.45
332.93 K, 13981 kPa, x2 = 0.3624 | 813.29 ± 0.44
332.93 K, 13992 kPa, x2 = 0.9757 | 633.72 ± 0.95
332.93 K, 14013 kPa, x2 = 0.8067 | 788.98 ± 0.5
332.93 K, 14027 kPa, x2 = 0.4651 | 817.14 ± 0.45
332.93 K, 15014 kPa, x2 = 0.9757 | 664.21 ± 0.84
332.93 K, 15021 kPa, x2 = 0.3624 | 814.39 ± 0.44
332.93 K, 15023 kPa, x2 = 0.4651 | 818.68 ± 0.45
332.93 K, 15025 kPa, x2 = 0.8067 | 796.09 ± 0.5
332.93 K, 15992 kPa, x2 = 0.3624 | 815.41 ± 0.45
332.93 K, 16007 kPa, x2 = 0.4651 | 820.18 ± 0.45
332.93 K, 16011 kPa, x2 = 0.9757 | 687.95 ± 0.75
332.93 K, 16021 kPa, x2 = 0.8067 | 802.3 ± 0.51
332.93 K, 17012 kPa, x2 = 0.3624 | 816.44 ± 0.45
332.93 K, 17014 kPa, x2 = 0.4651 | 821.68 ± 0.45
332.93 K, 17021 kPa, x2 = 0.8067 | 808.04 ± 0.5
332.93 K, 17022 kPa, x2 = 0.9757 | 707.96 ± 0.69
332.93 K, 18010 kPa, x2 = 0.3624 | 817.48 ± 0.45
332.93 K, 18021 kPa, x2 = 0.8067 | 813.35 ± 0.49
332.93 K, 18021 kPa, x2 = 0.9757 | 724.84 ± 0.65
332.93 K, 18040 kPa, x2 = 0.4651 | 823.21 ± 0.45
332.93 K, 19008 kPa, x2 = 0.9757 | 739.5 ± 0.62
332.93 K, 19011 kPa, x2 = 0.8067 | 818.27 ± 0.49
332.93 K, 19015 kPa, x2 = 0.4651 | 824.63 ± 0.45
332.93 K, 19032 kPa, x2 = 0.3624 | 818.5 ± 0.45
332.93 K, 19997 kPa, x2 = 0.3624 | 819.44 ± 0.45
332.93 K, 20022 kPa, x2 = 0.8067 | 822.95 ± 0.49
332.93 K, 20026 kPa, x2 = 0.4651 | 826.05 ± 0.45
332.93 K, 20041 kPa, x2 = 0.9757 | 753.18 ± 0.6
332.93 K, 21019 kPa, x2 = 0.4651 | 827.43 ± 0.45
332.93 K, 21021 kPa, x2 = 0.9757 | 764.86 ± 0.58
332.93 K, 21024 kPa, x2 = 0.3624 | 820.43 ± 0.45
332.93 K, 21029 kPa, x2 = 0.8067 | 827.4 ± 0.48
332.93 K, 21989 kPa, x2 = 0.8067 | 831.41 ± 0.48
332.93 K, 21997 kPa, x2 = 0.4651 | 828.79 ± 0.45
332.93 K, 22013 kPa, x2 = 0.3624 | 821.46 ± 0.45
332.93 K, 22013 kPa, x2 = 0.9757 | 775.63 ± 0.56
332.93 K, 23008 kPa, x2 = 0.8067 | 835.47 ± 0.48
332.93 K, 23021 kPa, x2 = 0.3624 | 822.42 ± 0.45
332.93 K, 23031 kPa, x2 = 0.4651 | 830.22 ± 0.45
332.93 K, 23997 kPa, x2 = 0.3624 | 823.36 ± 0.45
332.93 K, 24024 kPa, x2 = 0.4651 | 831.62 ± 0.45
332.93 K, 24893 kPa, x2 = 0.3624 | 824.24 ± 0.45
332.95 K, 13016 kPa, x2 = 0.8573 | 754.58 ± 0.6
332.95 K, 13026 kPa, x2 = 0.9216 | 704.11 ± 1
332.95 K, 14021 kPa, x2 = 0.9216 | 723.65 ± 0.67
332.95 K, 14042 kPa, x2 = 0.8573 | 766.56 ± 0.54
332.95 K, 15016 kPa, x2 = 0.9216 | 739.26 ± 0.62
332.95 K, 15028 kPa, x2 = 0.8573 | 776.2 ± 0.52
332.95 K, 15984 kPa, x2 = 0.9216 | 752.12 ± 0.58
332.95 K, 16013 kPa, x2 = 0.8573 | 784.6 ± 0.51
332.95 K, 17014 kPa, x2 = 0.8573 | 792.22 ± 0.5
332.95 K, 17039 kPa, x2 = 0.9216 | 764.27 ± 0.56
332.95 K, 18011 kPa, x2 = 0.8573 | 799.17 ± 0.5
332.95 K, 18019 kPa, x2 = 0.9216 | 774.24 ± 0.54
332.95 K, 19005 kPa, x2 = 0.9216 | 783.37 ± 0.53
332.95 K, 19027 kPa, x2 = 0.8573 | 805.67 ± 0.49
332.95 K, 20006 kPa, x2 = 0.8573 | 811.5 ± 0.49
332.95 K, 20008 kPa, x2 = 0.9216 | 791.89 ± 0.52
332.95 K, 20996 kPa, x2 = 0.8573 | 817.04 ± 0.48
332.95 K, 21037 kPa, x2 = 0.9216 | 799.89 ± 0.51
332.95 K, 21691 kPa, x2 = 0.9216 | 804.69 ± 0.51
332.95 K, 22056 kPa, x2 = 0.8573 | 822.62 ± 0.49
332.95 K, 23032 kPa, x2 = 0.8573 | 827.46 ± 0.48
332.95 K, 24010 kPa, x2 = 0.8573 | 832.11 ± 0.48
332.96 K, 3007 kPa, x2 = 0.0816 | 789.68 ± 0.43
332.96 K, 4028 kPa, x2 = 0.0816 | 790.6 ± 0.44
332.96 K, 4991 kPa, x2 = 0.0816 | 791.47 ± 0.44
332.96 K, 5998 kPa, x2 = 0.0816 | 792.36 ± 0.44
332.96 K, 7025 kPa, x2 = 0.0816 | 793.27 ± 0.44
332.96 K, 7995 kPa, x2 = 0.0816 | 794.13 ± 0.44
332.96 K, 9031 kPa, x2 = 0.0816 | 795.01 ± 0.44
332.96 K, 10005 kPa, x2 = 0.0816 | 795.83 ± 0.44
332.96 K, 11008 kPa, x2 = 0.0816 | 796.67 ± 0.44
332.96 K, 12026 kPa, x2 = 0.0816 | 797.53 ± 0.44
